Measurements published in BindingDB's records for doi:10.1016/j.bmcl.2014.07.010 (Freie Universitaet Berlin, 2014).

Assay: Inhibition of influenza A virus (A/Perth/16/2009(H3N2)) neuraminidase using MUNANA substrate pre-incubated for 30 mins before substrate addition by fluorometric assay

Structure (SMILES): O=c1cc(-c2ccc(O)c(O)c2)oc2cc(O[C@@H]3O[C@H](CO)[C@@H](O)[C@H](O)[C@H]3O)cc(O)c12
- IC50: 51.2 µM

Structure (SMILES): O=c1c(O)c(-c2ccc(O)cc2)oc2cc(O)cc(O)c12
- IC50: 42.2 µM

Structure (SMILES): O=c1cc(O)cc2oc(-c3ccc(O)c(O)c3)c(O[C@@H]3O[C@H](CO)[C@H](O)[C@H](O)[C@H]3O)c(O)c1-2 [2-(3,4-Dihydroxy-phenyl)-5,7-dihydroxy-3-((2S,4R,5R)-3,4,5-trihydroxy-6-hydroxymethyl-tetrahydro-pyran-2-yloxy)-chromen-4-one]
- IC50: 85.5 µM

Structure (SMILES): C[C@@H]1O[C@@H](Oc2c(-c3ccc(O)c(O)c3)oc3cc(O)cc(O)c3c2=O)[C@H](O)[C@H](O)[C@H]1O [CHEBI:17558]
- IC50: 121 µM

Structure (SMILES): O=c1cc(O)cc2oc(-c3ccc(O)c(O)c3)c(O[C@@H]3O[C@H](CO)[C@@H](O)[C@H](O)[C@H]3O)c(O)c1-2 [Quercetin 3-O-beta-D-glucoside]
- IC50: 477 µM
